Assay results: patent publication US10508130B2, “Crystalline polymorph of 15B-hydroxy-osaterone acetate” (ASKA Pharmaceutical Co., Ltd., priority 2016, dated 2019)

Tests used:
[1] = Thermal stability test (storage at 100° C., purity by HPLC); type: physicochemical; settings: in air; for colour of crystal with the passage of time / colour of crystal on the seventh day after storage: 100° C.; for colour of crystal with the passage of time: after seventh day up to 28 days
Description: The crystalline polymorphic form A obtained in Example 1 and the crystalline polymorphic form B obtained in Comparative Example 1 were each stored at a temperature of 100° C. for 28 days (storage condition: in a thermostatic bath, in air). During the storage, the crystals were sampled every predetermined time, and the purity of 15β-hydroxy-osaterone acetate in each sample was measured by HPLC.

[2] = Stability (stir-suspension) in mixed solvents; type: physicochemical; settings: for proportion maintaining crystal structure: stirred; for stability of crystal form to the solvents commonly used in production of preparations: acetone/heptane, acetone/water, ethanol/water mixed solvents
Description: To (1) an acetone/heptane mixed solvent (1:1), (2) an acetone/water mixed solvent (1:1), or (3) an ethanol/water mixed solvent (1:1) was added the crystalline polymorphic form A, and the mixture was stirred. One day after, the crystalline polymorphic form A maintained a crystal structure thereof at a proportion of 98% in the mixed solvent (1), 99% in the mixed solvent (2), and 100% in the mixed solvent (3). Three days after, the crystalline polymorphic form A maintained a crystal structure thereof at a proportion of 95% in the mixed solvent (1), 98% in the mixed solvent (2), and 99% in the mixed solvent (3). Even seven days after, the crystalline polymorphic form A maintained a crystal structure thereof at a proportion of 95% in the mixed solvent (1), 98% in the mixed solvent (2), and 99% in the mixed solvent (3).

[3] = Friction or pulverization stability (automatic mortar grinder, PXRD); type: physicochemical; settings: 50 mg pulverized one hour, pestle 124 g, 50 rpm; PXRD peak height ratio
Description: In an automatic mortar grinder (weight of pestle: 124 g, 50 rpm), 50 mg of a sample (the crystalline polymorphic form A or the crystalline polymorphic form B) was put, the sample was pulverized over one hour and sampled. A PXRD analysis of the sample was conducted to determine the change of a degree of crystallization. The degree of crystallization after one hour of the crystalline polymorphic form A was 46.8%, and that of the crystalline polymorphic form B was 22.2%. Thus, the crystalline polymorphic form A was stable to pulverization. Incidentally, the degree of crystallization was determined based on an intensity ratio (peak height) of a characteristic diffraction peak in the PXRD spectrum (for the crystalline polymorphic form A, a diffraction peak at 2θ=17.1°; for the crystalline polymorphic form B, a diffraction peak at 2θ=16.2°), and the change rate of crystallization degree was calculated.

[4] = Angle of repose (powder flow property); type: physicochemical; settings: for Angle of repose (°) Average: average of three measurements; for Degree of flow property: evaluated based on Japanese Pharmacopoeia, General Information (Powder Flow); for Angle of repose (°) First time: first measurement; for Angle of repose (°) Second time: second measurement; for Angle of repose (°) Third time: third measurement
Description: Probably due to being the prism crystal, the crystalline polymorphic form A of 15β-hydroxy-osaterone acetate is characterized by a high powder flow property and a small angle of repose. For example, the powdery crystalline polymorphic form A of 15β-hydroxy-osaterone acetate has an average angle of repose of, for example, about 30 to 38°, preferably about 32 to 37° (e.g., about 33 to 37°), and more preferably about 34 to 36°, when the angle of repose is measured three times in accordance with methods for angle of repose described in The Japanese Pharmacopoeia. Incidentally, the crystalline polymorphic form B of 15β-hydroxy-osaterone acetate has an average angle of repose of, for example, about 42 to 52° (e.g., about 44 to 50°, particularly about 45 to 47°) by the same measurement as above. The angle of repose can be evaluated as the following manner. A funnel (a glass funnel having a funnel diameter of 50 mm, a stem internal diameter of 7 mm, and a stem length of 40 mm) is provided, the height from the lower end of the funnel to a base surface (an upper surface of a cylinder having a diameter of 1.5 cm) is fixed to 4.5 cm, an excess amount of a powdery sample is dropped onto the center of the cylinder surface (the base surface) through the funnel, and an incident angle of the resulting accumulated powder is measured.
The height from a lower end of a funnel to a base surface (an upper surface of a cylinder having a diameter of 1.5 cm) was fixed to 4.5 cm, an excess amount of a powdery sample was dropped onto the center of the cylinder surface (the base surface) through the funnel. An incident angle (an angle of repose) of the resulting accumulated powder was measured. This operation was repeated three times, and the average value of the angle of repose was calculated.
In Table 1, the degree of flow property is evaluated based on Japanese Pharmacopoeia, General Information (G2 Solid-state Properties, Powder Flow), which is described about the relationship between the angle of repose and the flow property.

[5] = Pharmacokinetics in dog (oral capsule, plasma LC-MS/MS); type: in vivo; settings: female dogs, 0.3 mg/kg oral, gelatin capsule with lactose hydrate, plasma 15β-hydroxy-osaterone acetate
Description: For each sample of the crystalline polymorphic form A obtained in Example 1 and the crystalline polymorphic form B obtained in Comparative Example 1, the sample was mixed at a dose of 0.3 mg/kg with 100 mg of lactose hydrate (manufactured by DFE Pharma), and the mixture was filled with a gelatin capsule (manufactured by Matsuya Corporation, MM, size: No. 2) to prepare a capsule preparation. The capsule preparation containing the crystalline polymorphic form A was orally administered to a first female dog group (5 dogs), and the capsule preparation containing the crystalline polymorphic form B was orally administered to a second female dog group (5 dogs). The blood was sampled from each dog 0.5, 1, 2, 3, 4, 5, 7, 10, 24, 48, and 72 hours after oral administration, and the blood plasma from each sample was obtained by centrifugation. The concentration of 15β-hydroxy-osaterone acetate in each blood plasma was measured by an LC-MS/MS (liquid chromatography-tandem mass spectrometry) method, and a time to reach a maximum plasma concentration (Tmax) and a maximum plasma concentration (Cmax) were calculated.

Compound | colour of crystal with the passage of time [1] | colour of crystal on the seventh day after storage [1] | stability of crystal form to the solvents commonly used in production of preparations [2] | degree of crystallization after one hour [3] | Angle of repose (°) Average [4] | Degree of flow property [4] | Angle of repose (°) First time [4] | Angle of repose (°) Second time [4] | Angle of repose (°) Third time [4] | Tmax (time to reach a maximum plasma concentration) [5] | also measured
CC(=O)O[C@]1(C(C)=O)C[C@@H](O)[C@H]2[C@@H]3C=C(Cl)C4=CC(=O)OC[C@]4(C)[C@H]3CC[C@@]21C [Crystalline polymorphic form A, 17α-acetoxy-6-chloro-15β-hydroxy-2-oxapregna-4,6-diene-3,20-dione] | maintained light brown | light brown | highly stable | 46.8% | 35 ° | Good | 36 ° | 33 ° | 38 ° | 13.8 ± 8.33 h | thermal stability (active ingredient content / purity of 15β-hydroxy-osaterone acetate by HPLC) ([1]; stored at 100° C. for 28 days, thermostatic bath, FIG. 5): only a few decreases in active ingredient content; proportion maintaining crystal structure ([2]; acetone/heptane mixed solvent (1:1), one day after): 98%; proportion maintaining crystal structure ([2]; acetone/heptane mixed solvent (1:1), seven days after): 95%; proportion maintaining crystal structure ([2]; acetone/heptane mixed solvent (1:1), three days after): 95%; proportion maintaining crystal structure ([2]; acetone/water mixed solvent (1:1), one day after): 99%; proportion maintaining crystal structure ([2]; acetone/water mixed solvent (1:1), seven days after): 98%; proportion maintaining crystal structure ([2]; acetone/water mixed solvent (1:1), three days after): 98%; proportion maintaining crystal structure ([2]; ethanol/water mixed solvent (1:1), one day after): 100%; proportion maintaining crystal structure ([2]; ethanol/water mixed solvent (1:1), seven days after): 99%; proportion maintaining crystal structure ([2]; ethanol/water mixed solvent (1:1), three days after): 99%; Cmax (maximum plasma concentration) [5]: 84.2 ± 29.06 ng/mL
CC(=O)O[C@]1(C(C)=O)C[C@@H](O)[C@H]2[C@@H]3C=C(Cl)C4=CC(=O)OC[C@]4(C)[C@H]3CC[C@@]21C [Crystalline polymorphic form B, 17α-acetoxy-6-chloro-15β-hydroxy-2-oxapregna-4,6-diene-3,20-dione, reference compound] | turned brown | light brown | unstable | 22.2% | 46 ° | Poor | 51 ° | 39 ° | 48 ° | 5.8 ± 1.60 h | Cmax ([5]; female, dog, plasma, po, 0.3 mg/kg, read-out: Cmax (maximum plasma concentration)): 128 ± 19.2 ng/mL
